Experimental findings from patent US20250179047A1, “5-[7-(3,4-DIHYDRO-1H-ISOQUINOLINE-2-CARBONYL)-1,2,3,4 TETRAHYDROISOQUINOLIN-6-YL]-1H-PYRROLE-3-CARBOXAMIDE DERIVATIVES, PHARMACEUTICAL COMPOSITIONS CONTAINING THEM AND THEIR USES AS PRO-APOPTOTIC AGENTS” (LES LABORATOIRES SERVIER, priority 2022, published 2025) are described below.

SMILES strings stand for the structures.

One experiment deals with BCL2 WT (Homo sapiens (Human), UniProt P10415). The experiment can be described thus: TR-FRET competitive binding assay, BCL2 WT. Particulars: Ki determined from IC50, read-out: TR_FRET EKI_Bcl2 WT. The procedure, abridged:
(§1)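 Terbium-labelled N-terminal Halo-fusion BCL2 or BCLXL (E. coli), 0.5 nM, competed against fluorescein-labelled PUMA peptide (2 or 20 nM) for 2 h at 23° C in 50 mM Hepes pH 7.5, 150 mM NaCl, 5% DMSO. TR-FRET 520/495 nm ratio gave IC50 by four-parameter fit; Ki derived from IC50.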
Background: Time-resolved FRET reads energy transfer from a long-lived donor to a nearby acceptor.

The target in experiment [1] is BCL2 G101V (Homo sapiens, UniProt P10415, G101V). Briefly: TR-FRET competitive binding assay, BCL2 G101V. Particulars: BCL2 G101V; Ki determined from IC50; read-out: TR_FRET EKI_Bcl2 G101V. The procedure, abridged: as §1
Experiment [2] has as its system BCL2 G101V. The experiment can be described thus: TR-FRET competitive binding assay, BCL2 G101V. Also on record: species or system human. Particulars: ratio Ki BCL2 G101V / Ki BCL2 WT. The procedure, abridged:
as §1

A further experiment concerns the target BCL2 D103Y (Homo sapiens, UniProt P10415, D103Y). The experiment can be described thus: TR-FRET competitive binding assay, BCL2 D103Y. Particulars: Ki determined from IC50, read-out: TR_FRET EKI_Bcl2 D103Y. A digest of the protocol:
as §1

Another experiment concerns the target BCL2 F104I (Homo sapiens, UniProt P10415, F104I). The experiment can be described thus: TR-FRET competitive binding assay, BCL2 F104I. The following applies: Ki determined from IC50, read-out: TR_FRET EKI_Bcl2 F104I. A digest of the protocol: as §1
Another experiment deals with BCL2 D111A (Homo sapiens, UniProt P10415, D111A). The experiment can be described thus: TR-FRET competitive binding assay, BCL2 D111A. Particulars: Ki determined from IC50, read-out: TR_FRET EKI_Bcl2 D111A. A digest of the protocol:
as §1

The target in the next experiment is BCLXL WT (Homo sapiens (Human), UniProt Q07817). The experiment can be described thus: TR-FRET competitive binding assay, BCLXL WT. Particulars: for Ki: BCLXL WT, Ki determined from IC50, read-out: TR_FRET EKI BclxL; for TR_FRET EKI BCLxL/WT selectivty ratio: ratio Ki BCLxL / Ki BCL2 WT. A digest of the protocol:
as §1

The test system of the next experiment is KMS-12-PE Bcl-2 WT. Briefly: In vitro cytotoxicity CellTiter-Glo 48 h, KMS-12-PE Bcl-2 WT. It counts as cell-based. The following applies: C50 = concentration needed to reach 50% of the cellular viability. A digest of the protocol:
(§2)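 Potency is expressed as C50, the compound concentration at which viability of engineered KMS-12-PE cells (Bcl-2 wild type or G101V) falls to 50%, determined from CellTiter-Glo luminescence after 48 h of treatment over 11 concentrations.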
A general note: Cellular ATP, detected with luciferase, serves as a proxy for viable cell number.

The subject of a further experiment is KMS-12-PE Bcl-2 G101V. The experiment can be described thus: In vitro cytotoxicity CellTiter-Glo 48 h, KMS-12-PE Bcl-2 G101V. In kind it is cell-based. The following applies: for Ratio (G101V/WT): C50 KMS-12-PE Bcl-2 G101V over C50 KMS-12-PE Bcl-2 WT; for IC50: Homo sapiens, KMS-12-PE, 48 h, CellTiter-Glo, C50 = concentration needed to reach 50% of the cellular viability. The procedure, abridged:
as §2

BCLXL WT, sequence (Q07817 other isoform, or with tags, fused parts or gaps): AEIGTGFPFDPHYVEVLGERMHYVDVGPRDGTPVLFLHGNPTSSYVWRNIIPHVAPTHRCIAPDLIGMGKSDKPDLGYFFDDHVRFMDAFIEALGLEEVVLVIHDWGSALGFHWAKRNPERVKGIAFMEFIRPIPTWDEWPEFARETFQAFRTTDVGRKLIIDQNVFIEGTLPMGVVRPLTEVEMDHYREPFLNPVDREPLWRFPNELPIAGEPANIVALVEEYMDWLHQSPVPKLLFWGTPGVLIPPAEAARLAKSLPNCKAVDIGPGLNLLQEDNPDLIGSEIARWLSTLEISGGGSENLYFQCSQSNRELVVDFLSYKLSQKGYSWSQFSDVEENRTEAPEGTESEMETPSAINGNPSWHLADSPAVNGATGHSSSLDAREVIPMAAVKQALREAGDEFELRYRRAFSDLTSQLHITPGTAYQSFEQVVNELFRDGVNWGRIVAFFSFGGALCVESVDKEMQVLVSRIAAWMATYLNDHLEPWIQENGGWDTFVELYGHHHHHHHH

Regarding `Cc1c(N(C(=O)c2cc(-c3cc4c(cc3C(=O)N3Cc5ccccc5C[C@H]3C)CN(C(=O)Cc3ccc(OCCN5CCC(F)(F)C5)cc3)CC4)n(C)c2C)c2ccc(O)cc2)cc(C#N)n1C` [Example 50, N-(5-cyano-1,2-dimethyl-1H-pyrrol-3-yl)-5-[2-(2-{4-[2-(3,3-difluoropyrrolidin-1-yl)ethoxy]phenyl}acetyl)-7-[(3R)-3-methyl-1,2,3,4-tetrahydroisoquinoline-2-carbonyl]-1,2,3,4-tetrahydroisoquinolin-6-yl]-N-(4-hydroxyphenyl)-1,2-dimethyl-1H-pyrrole-3-carboxamide], the Ki worked out at 0.26 nM on BCL2 WT; 0.6 nM at BCL2 G101V [1]; 0.58 nM at BCL2 D103Y; 4.66 nM at BCL2 F104I; 1.46 nM at BCL2 D111A; 5.8 nM at BCLXL WT. In the experiment with BCL2 G101V [2], the “TR_FRET EKI G101V/WT selectivty ratio” value came out at 2.3. For the same molecule, the “TR_FRET EKI BCLxL/WT selectivty ratio” value at BCLXL WT is recorded as 22.3. Also, the IC50 in the experiment on KMS-12-PE Bcl-2 WT (Homo sapiens, KMS-12-PE) was 0.0052 µM; in the experiment with KMS-12-PE Bcl-2 G101V, 0.0341 µM. The “Ratio (G101V/WT)” value in the experiment with KMS-12-PE Bcl-2 G101V is 6.53.
Take `Cc1c(N(C(=O)c2cc(-c3cc4c(cc3C(=O)N3Cc5ccccc5C[C@H]3C)CN(C(=O)Cc3ccc(OCCN5CCO[C@@H](C)C5)cc3)CC4)n(C)c2C)c2ccc(O)cc2)cc(C#N)n1C` [Example 57, N-(5-cyano-1,2-dimethyl-1H-pyrrol-3-yl)-N-(4-hydroxyphenyl)-1,2-dimethyl-5-{7-[(3R)-3-methyl-1,2,3,4-tetrahydroisoquinoline-2-carbonyl]-2-(2-{4-[2-((2S)-2-methylmorpholin-4-yl)ethoxy]phenyl}acetyl)-1,2,3,4-tetrahydroisoquinolin-6-yl}-1H-pyrrole-3-carboxamide]: the Ki was determined as 0.05 nM at BCL2 WT; 0.2 nM at BCL2 G101V [1]; 0.15 nM on BCL2 D103Y; 0.47 nM on BCL2 F104I; 0.21 nM at BCL2 D111A; 1.7 nM on BCLXL WT. For the same molecule, the “TR_FRET EKI G101V/WT selectivty ratio” value with BCL2 G101V [2] came to 4.1. At BCLXL WT, the “TR_FRET EKI BCLxL/WT selectivty ratio” value is given as 34.7. The IC50 in the experiment with KMS-12-PE Bcl-2 WT (Homo sapiens, KMS-12-PE) was 0.0048 µM; in the experiment with KMS-12-PE Bcl-2 G101V, 0.0208 µM. Moreover, the “Ratio (G101V/WT)” value with KMS-12-PE Bcl-2 G101V worked out at 4.32.
As to `Cc1c(N(C(=O)c2cc(-c3cc4c(cc3C(=O)N3Cc5ccccc5C[C@H]3C)CN(C(=O)Cc3ccc(OCCN(C)C5COC5)cc3)CC4)n(C)c2C)c2ccc(O)cc2)cc(C#N)n1C` [Example 60, N-(5-cyano-1,2-dimethyl-1H-pyrrol-3-yl)-N-(4-hydroxyphenyl)-1,2-dimethyl-5-{2-[2-(4-{2-[methyl(oxetan-3-yl)amino]ethoxy}phenyl)acetyl]-7-[(3R)-3-methyl-1,2,3,4-tetrahydroisoquinoline-2-carbonyl]-1,2,3,4-tetrahydroisoquinolin-6-yl}-1H-pyrrole-3-carboxamide], the Ki is 0.05 nM on BCL2 WT; 0.2 nM at BCL2 G101V [1]; 0.14 nM on BCL2 D103Y; 0.21 nM on BCL2 F104I; 0.09 nM on BCL2 D111A; 1 nM on BCLXL WT. For the same molecule, in the experiment with BCL2 G101V [2], the “TR_FRET EKI G101V/WT selectivty ratio” value is 3.5. In addition, the “TR_FRET EKI BCLxL/WT selectivty ratio” value at BCLXL WT was 19.2. The IC50 in the experiment on KMS-12-PE Bcl-2 WT (Homo sapiens, KMS-12-PE) came out at 0.0075 µM; in the experiment on KMS-12-PE Bcl-2 G101V, 0.0367 µM. The “Ratio (G101V/WT)” value in the experiment with KMS-12-PE Bcl-2 G101V came to 4.91.
Consider `Cc1c(N(C(=O)c2cc(-c3cc4c(cc3C(=O)N3Cc5ccccc5C[C@H]3C)CN(C(=O)Cc3ccc(OCCN(C)C5CC5)nc3)CC4)n(C)c2C)c2ccc(O)cc2)cc(C#N)n1C` [Example 61, N-(5-cyano-1,2-dimethyl-1H-pyrrol-3-yl)-5-{2-[2-(6-{2-[cyclopropyl(methyl)amino]ethoxy}pyridin-3-yl)acetyl]-7-[(3R)-3-methyl-1,2,3,4-tetrahydroisoquinoline-2-carbonyl]-1,2,3,4-tetrahydroisoquinolin-6-yl}-N-(4-hydroxyphenyl)-1,2-dimethyl-1H-pyrrole-3-carboxamide], for which the Ki on BCL2 WT is 0.04 nM; at BCL2 G101V [1], 0.2 nM; on BCL2 D103Y, 0.13 nM; at BCL2 F104I, 1.02 nM; on BCL2 D111A it was 0.18 nM; on BCLXL WT, 1.5 nM. In addition, the “TR_FRET EKI G101V/WT selectivty ratio” value in the experiment on BCL2 G101V [2] is recorded as 5.0. The “TR_FRET EKI BCLxL/WT selectivty ratio” value at BCLXL WT is given as 35.7. The IC50 in the experiment on KMS-12-PE Bcl-2 WT (Homo sapiens, KMS-12-PE) is 0.0143 µM; in the experiment with KMS-12-PE Bcl-2 G101V it was 0.0824 µM. The “Ratio (G101V/WT)” value in the experiment on KMS-12-PE Bcl-2 G101V amounted to 5.76.
Consider `Cc1c(C(=O)N(c2ccc(O)cc2)c2cnc3c(cnn3C)c2)cc(-c2cc3c(cc2C(=O)N2Cc4ccccc4C[C@H]2C)CN(C(=O)Cc2ccc(OCCN4CCOCC4)cc2)CC3)n1C` [Example 62, N-(4-hydroxyphenyl)-1,2-dimethyl-5-(7-{[(3R)-3-methyl-3,4-dihydro-1H-isoquinolin-2-yl]carbonyl}-2-(2-{4-[2-(morpholin-4-yl)ethoxy]phenyl}acetyl)-3,4-dihydro-1H-isoquinolin-6-yl)-N-{1-methylpyrazolo[3,4-b]pyridin-5-yl}pyrrole-3-carboxamide], for which the Ki at BCL2 WT amounted to 0.06 nM; at BCL2 G101V [1] it was 0.3 nM; on BCL2 D103Y, 0.47 nM; on BCL2 F104I it was 0.38 nM; at BCL2 D111A it was 0.09 nM; on BCLXL WT it was 2.4 nM. Besides, the “TR_FRET EKI G101V/WT selectivty ratio” value in the experiment on BCL2 G101V [2] stood at 5.5. For the same molecule, the “TR_FRET EKI BCLxL/WT selectivty ratio” value on BCLXL WT was 38.7. Also, the IC50 in the experiment on KMS-12-PE Bcl-2 WT (Homo sapiens, KMS-12-PE) was 0.0118 µM; in the experiment with KMS-12-PE Bcl-2 G101V, 0.0892 µM. For the same molecule, in the experiment on KMS-12-PE Bcl-2 G101V, the “Ratio (G101V/WT)” value is 7.56.
For `Cc1c(N(C(=O)c2cc(-c3cc4c(cc3C(=O)N3Cc5ccccc5C[C@H]3C)CN(C(=O)Cc3ccc(OCCN5CCOCC5)cc3)CC4)n(C)c2C)c2ccccc2)cc(C#N)n1C` [Example 65, N-(5-cyano-1,2-dimethylpyrrol-3-yl)-1,2-dimethyl-5-(7-{[(3R)-3-methyl-3,4-dihydro-1H-isoquinolin-2-yl]carbonyl}-2-(2-{4-[2-(morpholin-4-yl)ethoxy]phenyl}acetyl)-3,4-dihydro-1H-isoquinolin-6-yl)-N-phenylpyrrole-3-carboxamide], the Ki turned out to be 0.08 nM on BCL2 WT; 0.7 nM on BCL2 G101V [1]; 0.8 nM on BCL2 D103Y; 1.12 nM on BCL2 F104I; 0.14 nM at BCL2 D111A; 4.1 nM at BCLXL WT. Further, the “TR_FRET EKI G101V/WT selectivty ratio” value in the experiment on BCL2 G101V [2] worked out at 9.4. In addition, the “TR_FRET EKI BCLxL/WT selectivty ratio” value at BCLXL WT is 52.6. Besides, the IC50 was 0.0028 µM in the experiment with KMS-12-PE Bcl-2 WT and 0.0414 µM with KMS-12-PE Bcl-2 G101V. Further, the “Ratio (G101V/WT)” value with KMS-12-PE Bcl-2 G101V was 15.
For `Cc1c(C(=O)N(c2ccc(O)cc2)c2cc(C#N)n(C3CC3)c2C)cc(-c2cc3c(cc2C(=O)N2Cc4ccccc4C[C@H]2C)CN(C(=O)Cc2ccc(OCCN4CCOCC4)cc2)CC3)n1C` [Example 71, N-(5-cyano-1-cyclopropyl-2-methyl-pyrrol-3-yl)-N-(4-hydroxyphenyl)-1,2-dimethyl-5-[7-[(3R)-3-methyl-3,4-dihydro-1H-isoquinoline-2-carbonyl]-2-[2-[4-(2-morpholinoethoxy)phenyl]acetyl]-3,4-dihydro-1H-isoquinolin-6-yl]pyrrole-3-carboxamide], the Ki on BCL2 WT came out at 0.15 nM; at BCL2 G101V [1] it was 1.2 nM; at BCL2 D103Y, 0.68 nM; on BCL2 F104I, 1.02 nM; on BCL2 D111A it was 0.31 nM; on BCLXL WT, 1.6 nM. Also, the “TR_FRET EKI G101V/WT selectivty ratio” value with BCL2 G101V [2] worked out at 8.0. The “TR_FRET EKI BCLxL/WT selectivty ratio” value on BCLXL WT is given as 10.7. Also, the IC50 in the experiment on KMS-12-PE Bcl-2 WT (Homo sapiens, KMS-12-PE) was determined as 0.0092 µM; with KMS-12-PE Bcl-2 G101V, 0.0356 µM. In the experiment on KMS-12-PE Bcl-2 G101V, the “Ratio (G101V/WT)” value was 3.88.

As usually defined, the IC50 is the concentration at which inhibition is half-maximal. Lower therefore signals greater potency.
